From PMC2935147 (Journal of medicinal chemistry, 2010)
Counter-ions that a name gives are not always drawn. Like-named read-outs stand apart in the source and are kept apart here. Each block holds one compound with its values, some of them ahead of it.

What was measured:
[1] = target: T1, human P2Y6 receptor (Homo sapiens, UniProt Q15077); details: cited from earlier work
[2] = target: human P2Y14 receptor; details: read-out: EC50 at the P2Y14 receptor; cited from earlier work
[3] = target: T1, human P2Y6 receptor; assay type: cell-based
[4] = target: T1, human P2Y6 receptor; experiment: PLC activation; assay type: cell-based; details: for activity at the P2Y6 receptor: 1321N1 cells; for Pharmacological properties at hP2Y6 receptor: summary in words, Table 4
[5] = target: T2, human P2Y2 receptor (Homo sapiens, UniProt P41231); experiment: PLC activation; assay type: cell-based
T2 sequence (P41231 whole entry): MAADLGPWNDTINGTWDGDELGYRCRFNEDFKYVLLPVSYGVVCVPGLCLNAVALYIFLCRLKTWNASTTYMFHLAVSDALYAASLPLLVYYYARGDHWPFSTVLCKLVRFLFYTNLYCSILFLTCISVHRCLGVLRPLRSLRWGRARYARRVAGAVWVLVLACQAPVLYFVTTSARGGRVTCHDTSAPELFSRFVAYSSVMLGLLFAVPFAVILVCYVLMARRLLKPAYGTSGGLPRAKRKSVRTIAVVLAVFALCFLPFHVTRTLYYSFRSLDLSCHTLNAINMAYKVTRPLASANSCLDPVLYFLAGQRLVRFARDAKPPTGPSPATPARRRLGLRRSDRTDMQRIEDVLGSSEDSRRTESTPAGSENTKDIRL

[6] = target: human P2Y4 receptor (Homo sapiens, UniProt P51582); details: read-out: EC50 hP2Y4; ref Kim et al.[26]; cited from earlier work
Chain of human P2Y4 receptor (P51582 whole entry): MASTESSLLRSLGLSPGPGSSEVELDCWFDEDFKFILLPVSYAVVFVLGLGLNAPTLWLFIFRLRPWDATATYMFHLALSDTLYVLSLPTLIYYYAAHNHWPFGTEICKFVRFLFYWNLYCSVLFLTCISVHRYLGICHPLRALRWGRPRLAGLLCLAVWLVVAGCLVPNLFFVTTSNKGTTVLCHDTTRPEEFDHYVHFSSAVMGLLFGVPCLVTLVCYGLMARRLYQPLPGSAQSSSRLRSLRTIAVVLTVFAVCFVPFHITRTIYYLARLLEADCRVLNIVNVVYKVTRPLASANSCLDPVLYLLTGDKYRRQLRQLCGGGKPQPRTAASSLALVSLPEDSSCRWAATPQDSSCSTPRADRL

[7] = target: T2, human P2Y2 receptor; details: read-out: EC50 hP2Y2; ref Kim et al.[26]; cited from earlier work
[8] = Stability in acidic aqueous solution; assay type: physicochemical; details: HCl buffer (pH 1.2)
[9] = ratio of EC50 values, PLC activation

T1 sequence (Q15077 whole entry): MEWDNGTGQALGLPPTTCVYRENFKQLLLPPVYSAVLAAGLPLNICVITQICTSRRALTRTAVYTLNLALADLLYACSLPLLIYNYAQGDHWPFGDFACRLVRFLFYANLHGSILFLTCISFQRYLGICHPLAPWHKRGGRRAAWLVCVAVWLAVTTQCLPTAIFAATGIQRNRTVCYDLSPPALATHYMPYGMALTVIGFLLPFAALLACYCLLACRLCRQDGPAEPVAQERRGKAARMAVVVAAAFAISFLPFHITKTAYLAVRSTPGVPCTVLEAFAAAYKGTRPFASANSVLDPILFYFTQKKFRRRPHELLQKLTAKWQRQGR

SMILES: Nc1ccn([C@@H]2O[C@H](COP(=O)(O)OP(=O)(O)O)[C@@H](O)[C@H]2O)c(=O)n1 [CDP]
activity at the human P2Y6 receptor [1]: nearly inactive
EC50 [2]: > 10000 nM

EC50 [3]: 200 nM
SMILES: O=c1ccn([C@@H]2O[C@H](COP(=O)(O)OP(=O)(O)O)[C@@H](O)[C@H]2O)c(=O)[nH]1 [Compound 1, uridine-5′-diphosphate]

EC50 [3]: 50 nM
SMILES: O=c1[nH]c(=O)n([C@@H]2O[C@H](COP(=O)(O)OP(=O)(O)O)[C@@H](O)[C@H]2O)cc1I [Compound 3, 5-iodo-UDP]

gain of potency at the P2Y6 receptor over (S)-methanocarba-2′-deoxy-UDP 6 ([4]; ratio of EC50 values): 5 fold
gain of potency at the P2Y6 receptor over UDP 1 ([4]; ratio of EC50 values): 7 fold
SMILES: N.O=c1ccn([C@@]23C[C@H]2[C@H](COP(=O)(O)OP(=O)(O)O)[C@@H](O)[C@H]3O)c(=O)[nH]1 [Compound 7, (S)-Methanocarba-uridine-5′-diphosphate triethylammonium salt]

SMILES: O=c1ccn([C@H]2[C@H](O)[C@H](O)[C@@]3(COP(=O)(O)OP(=O)(O)O)C[C@H]23)c(=O)[nH]1 [Compound 8, (N)-methanocarba UDP]
activity at the P2Y6 receptor ([1]; previously found): inactive

SMILES: CCN(CC)CC.O=c1ccn([C@@]23C[C@H]2[C@@H]2COP(=O)(O)OP(=O)(O)O[C@H]2[C@H]3O)c(=O)[nH]1 [Compound 9, (S)-Methanocarba-uridine-3′, 5′-cyclic diphosphate triethylammonium salt]
activity at the P2Y6 receptor ([4]; PLC activation): inactive

SMILES: CCN(CC)CC.CO/N=c1/ccn([C@@H]2O[C@H](COP(=O)(O)OP(=O)(O)O)[C@@H](O)[C@H]2O)c(=O)[nH]1 [Compound 12, N^4-Methoxycytidine-5′-diphosphate ammonium salt]
selectivity P2Y6 versus P2Y14 receptor ([4]; PLC via P2Y6 versus inhibition of cyclic AMP accumulation in HEK-293 cells expressing hP2Y14): 47 fold
gain of potency at the P2Y6 receptor over UDP 1 ([4]; ratio of EC50 values): 4 fold
selectivity P2Y6 versus P2Y2 receptor [4, 9]: 51 fold
Pharmacological properties at hP2Y6 receptor [4]: selective, potent agonist

EC50 [4]: 104 ± 23 nM
SMILES: CCO/N=c1/ccn([C@@H]2O[C@H](COP(=O)(O)OP(=O)(O)O)[C@@H](O)[C@H]2O)c(=O)[nH]1 [Compound 13, N^4-Ethoxycytidine-5′-diphosphate ammonium salt]

EC50 [4]: 2550 ± 700 nM
SMILES: CC(C)(C)O/N=c1/ccn([C@@H]2O[C@H](COP(=O)(O)OP(=O)(O)O)[C@@H](O)[C@H]2O)c(=O)[nH]1 [Compound 14, N^4-t-Butyloxycytidine-5′-diphosphate ammonium salt]

SMILES: CCN(CC)CC.O=c1[nH]/c(=N\OCc2ccccc2)ccn1[C@@H]1O[C@H](COP(=O)(O)OP(=O)(O)O)[C@@H](O)[C@H]1O [Compound 15, N^4-Benzyloxycytidine-5′-diphosphate ammonium salt]
Pharmacological properties at hP2Y6 receptor [4]: selective, potent agonist

EC50 [4]: 678 ± 18 nM
EC50 [5]: > 10000 nM
SMILES: CO/N=c1/ccn([C@@H]2O[C@H](COP(=O)(O)CP(=O)(O)O)[C@@H](O)[C@H]2O)c(=O)[nH]1 [Compound 16, N^4-Methoxycytidine-5′-α,β-methylenediphosphate triethylammonium salt]

Pharmacological properties at hP2Y6 receptor [4]: ~inactive
SMILES: O=c1ccn([C@@H]2O[C@H](COP(=O)(O)OP(=O)(O)OP(=O)(O)O)[C@@H](O)[C@H]2O)c(=O)[nH]1 [Compound 17, uridine-5′-triphosphate, reference compound]

SMILES: O=c1ccn(C2C(O)C(O)C3(COP(=O)(O)OP(=O)(O)OP(=O)(O)O)CC23)c(=O)[nH]1 (stereo not drawn) [Compound 19, (N)-methanocarba UTP]
EC50 ([1]; read-out: EC50 hP2Y6, NE = no effect at 10 μM, ref Kim et al.[26]): > 10000 nM
EC50 [6]: 85 ± 5 nM
EC50 [7]: 16 ± 7 nM

SMILES: CCN(CC)CC.CO/N=c1\ccn([C@@H]2O[C@H](COP(=O)(O)OP(=O)(O)OP(=O)(O)O)[C@@H](O)[C@H]2O)c(=O)[nH]1 [Compound 20, N^4-Methoxycytidine-5′-triphosphate ammonium salt]
gain of potency at the P2Y6 receptor over UTP 17 ([4]; ratio of EC50 values): > 100 fold

half-life at 0.2 mg/mL [8]: 218 h
EC50 [3]: 370 nM
SMILES: O=c1ccn([C@@H]2O[C@H](COP(=O)(O)OP(=O)(O)OP(=O)(O)OC[C@H]3O[C@@H](n4ccc(=O)[nH]c4=O)[C@H](O)[C@@H]3O)[C@@H](O)[C@H]2O)c(=O)[nH]1 [Compound 21, Up3U]
Pharmacological properties at hP2Y6 receptor [4]: moderately potent agonist, only 4-5 fold selective

SMILES: CCN(CC)CC.O=c1ccn([C@@H]2O[C@H](COP(=O)(O)CP(=O)(O)OP(=O)(O)OC[C@H]3O[C@@H](n4ccc(=O)[nH]c4=O)[C@H](O)[C@@H]3O)[C@@H](O)[C@H]2O)c(=O)[nH]1 [Compound 22, P^1,P^3-Di(uridine-5′-)α,β-methylenetriphosphate triethylammonium salt]
reduction of P2Y6 receptor potency relative to Up3U 21 ([4]; ratio of EC50 values): 5 fold
Pharmacological properties at hP2Y6 receptor [4]: weak agonist, selective

SMILES: CCN(CC)CC.CO/N=c1/ccn([C@@H]2O[C@H](COP(=O)(O)OP(=O)(O)OP(=O)(O)OC[C@H]3O[C@@H](n4ccc(=O)[nH]c4=O)[C@H](O)[C@@H]3O)[C@@H](O)[C@H]2O)c(=O)[nH]1 [Compound 23, N^4-methoxy-Cp3U]
enhancement of P2Y6 receptor potency relative to Up3U 21 ([4]; ratio of EC50 values): 22 fold
Pharmacological properties at hP2Y6 receptor [4]: selective, potent agonist
EC50 [3]: 83 nM

EC50 [3]: 630 nM
SMILES: CONc1ccn([C@@H]2O[C@H](COP(=O)(O)OP(=O)(O)OP(=O)(O)OC[C@H]3O[C@@H](n4ccc(NOC)nc4=O)[C@H](O)[C@@H]3O)[C@@H](O)[C@H]2O)c(=O)n1 [Compound 24, N^4-OMe-Cp3(N^4-OMe)C]

SMILES: CCN(CC)CC.O=c1ccn([C@@H]2O[C@H](COP(=O)(O)OP(=O)(O)OP(=O)(O)OC3CCCCC3)[C@@H](O)[C@H]2O)c(=O)[nH]1 [Compound 25, P^1-Uridine-5′-P^3-cyclohexyl-triphosphate triethylammonium salt]
Pharmacological properties at hP2Y6 receptor [4]: weak agonist, nonselective vs. P2Y2 receptor

SMILES: CCN(CC)CC.O=c1ccn([C@@H]2O[C@H](COP(=O)(O)OP(=O)(O)OP(=O)(O)Oc3ccccc3)[C@@H](O)[C@H]2O)c(=O)[nH]1 [Compound 26, P^1-Uridine-5′-P^3-phenyl-triphosphate triethylammonium salt]
Pharmacological properties at hP2Y6 receptor [4]: weak agonist, selective

SMILES: CCN(CC)CC.O=c1ccn([C@@H]2O[C@H](COP(=O)(O)OP(=O)(O)OP(=O)(O)O[C@H]3O[C@H](CO)[C@@H](O)[C@H](O)[C@H]3O)[C@@H](O)[C@H]2O)c(=O)[nH]1 [Compound 27, P^1-Uridine-5′-P^3-[1]glucose-1′-triphosphate triethylammonium salt]
activity at the P2Y6 receptor ([4]; PLC activation): only weakly activated
activity at the P2Y6 receptor ([4]; PLC activation, listed as UTP-glucose): inactive
Pharmacological properties at hP2Y6 receptor [4]: ~inactive

SMILES: CCN(CC)CC.O=C(Cn1c(=O)ccn([C@@H]2O[C@H](COP(=O)(O)OP(=O)(O)OP(=O)(O)O[C@H]3O[C@H](CO)[C@@H](O)[C@H](O)[C@H]3O)[C@@H](O)[C@H]2O)c1=O)c1ccccc1 [Compound 30, 3-Phenacyluridine-5′-glucose-1′-triphosphate triethylammonium salt]
activity at the P2Y6 receptor ([4]; PLC activation): only weakly active

SMILES: CCN(CC)CC.O=c1ccn([C@@H]2O[C@H](COP(=O)(O)CP(=O)(O)OP(=O)(O)O[C@H]3O[C@H](CO)[C@@H](O)[C@H](O)[C@H]3O)[C@@H](O)[C@H]2O)c(=O)[nH]1 [Compound 31, Uridine-5′-glucose-1′-α,β-methylenetriphosphate triethylammonium salt]
activity at the P2Y6 receptor ([4]; PLC activation): only weakly active
Pharmacological properties at hP2Y6 receptor [4]: ~inactive

SMILES: CCN(CC)CC.CO/N=c1/ccn([C@@H]2O[C@H](COP(=O)(O)OP(=O)(O)OP(=O)(O)O[C@H]3O[C@H](CO)[C@@H](O)[C@H](O)[C@H]3O)[C@@H](O)[C@H]2O)c(=O)[nH]1 [Compound 32, N^4-Methoxycytidine-5′-glucose-1′-triphosphate triethylammonium salt]
selectivity P2Y6 versus P2Y2 receptor [4, 9]: > 100 fold
selectivity P2Y6 versus P2Y4 receptor [4, 9]: > 100 fold

SMILES: CCN(CC)CC.CO/N=c1/ccn([C@@H]2O[C@H](COP(=O)(O)OP(=O)(O)OP(=O)(O)Oc3ccccc3)[C@@H](O)[C@H]2O)c(=O)[nH]1 [Compound 33, N^4-Methoxycytidine-5′-phenyl-triphosphate triethylammonium salt]
activity at the P2Y6 receptor ([4]; PLC activation): weakly activated
